Series [1] relates to Poliovirus type 1 Chat strain.
Series [2] concerns Human adenovirus type 5 Adenoid 75 strain.

Consider zinc pyrithione, for which, in series [1], the “Reduction in virus titration” value is “at least 4 log”, the “Reduction ratio in virus titration” value is 4.5 Logarithmic TCID50 and the “Virus titration with disinfectant” value came to 1.5 Logarithmic TCID50. Moreover, in the series with HEp-2 cells, the “Cytopathic effect on the cells in the cell culture” value is “showed cytopathic effect” and the “Lowest ratio of zinc pyrithione solution which does not show cytopathic effect” value came to 0.01%. Besides, in series [2], the “Activity against the virus” value is recorded as 99.9%, the “Reduction in virus titration” value is given as “at least 4 log”, the “Reduction ratio in virus titration” value came to 4.0 Logarithmic TCID50 and the “Virus titration with disinfectant” value was 1.0 Logarithmic TCID50.

Values taken from patent US20170135339A1, “COATING FORMULATION FOR SEED AND SURFACE STERILIZATION” (priority 2015, published 2017).
